According to US9040714B2 (MannKind Corporation, priority 2010, dated 2015):

Key:
[1] = system: XBP-1 splicing in RPMI 8226 cells; experiment: Inhibition of thapsigargin-induced endogenous XBP-1 splicing in RPMI 8226 cells (RT-PCR); assay type: cell-based, human; conditions: 300 nM, 2 hours
Method: PCR amplification products were run on a 4% agarose gel and stained with ethidium bromide. The inverse image is shown.
Cell Culture. RPMI 8226 cells were grown in monolayer culture using Dulbecco's Modified Eagle Medium (DMEM) supplemented with 10% fetal calf serum (FCS) at 37° C. and 5% CO2. Compounds were kept as 10 mM stock in DMSO at −20° C. and diluted in medium to 10 μM, Thapsigargin (Tg) was resuspended in DMSO and diluted in medium,
RT-qPCR. Procedures for measuring XBP-1s and XBP-1u mRNAs have been described previously (Volkmann et al., J. Biol. Chem. 286, 12743-55, 2011). Briefly, total RNA was harvested from cells or tissue using TRIZOL® (Invitrogen) according to the manufacture's procedures. After ethanol, precipitation and resuspension of the RNA, RIBOGREEN® (Invitrogen) was used to quantify the yield—and normalize the RNA concentration in the source tube containing isolated RNA. RT-PCR was performed by oligo dT priming, […]® II (Invitrogen) and reverse transcription using the […] GOLD® Kit (Applied Biosystems) according to the manufacturer's protocols. Primers for human XBP-1 were
All DNA oligos were purchased from IDT DNA Technologies. PCR reactions were run on a Bio-Rad PTC-100® 96-well thermocycler; heating at 94° C. for 30 seconds, annealing at 58° C. for 30 seconds polymerizing at 72° C. for 30 seconds for 35 cycles. […]

[2] = system: XBP-1 splicing in liver and kidney; experiment: XBP-1 splicing inhibition in livers and kidneys of mice after tunicamycin; assay type: in vivo, CB17 SCID mice; conditions: 1 mg/kg IP, relative to PBS treated mice
From the text: The preclinical validation strategy employs a set of animal models representing normal tissues under chemical stress and multiple myeloma xenography. The normal animal model is employed as a surrogate model where dose-related on-target activity of compounds can be confirmed in tissues sensitive to standard UPR inducing agents such as tunicamycin (Wu et al., Dev Cell. 2007 September; 13 (1d):351-64). […] Upon induction with tunicamycin, tissues induce active XBP-1 mRNA, splicing, and this activity is suppressed by IRE-1α inhibitors. This on-target ER stress animal model is a useful screening and early pharmacokinetic tool.
CB17 SCID mice were treated with 1 mg/kg tunicamycin by intraperitoneal (IP) injection at time 0 (T=0). Two hours later, compound A formulated in 10% hydroxy beta propyl cyclo dextran HBPCD was administered by IP injection. Doses were 50 mg/kg, 25 mg/kg and 10 mg/kg (4 mice in each group). Mice were sacrificed two hours later (4 hours from T=0), and the designated organs were harvested (FIG. 3A).
RT-PCR analysis was performed using murine-specific XBP-1 primers from total RNA harvested from specified organs. […] Each lane represents an individual mouse where RNA was harvested and RT-PCR was performed. Method of RNA extraction and RT-PCR analysis is described in Volkmann et al., J. Biol. Chem. 286, 12743-55, 2011. […]

Row | Compound | induction of XBP-1s [1] | induction of XBP-1 spliced (XBP-1s) [2]
1 | C/C=C(/C)C(=O)O[C@H]1C(C)=C2[C@H]([C@@H]1OC(=O)CCCCCCC)[C@@](C)(OC(C)=O)C[C@H](OC(=O)CCC)[C@@]1(O)[C@H]2OC(=O)[C@@]1(C)O [Thapsigargin] | near complete conversion of XBP-1u to XBP-1s | 
2 | tunicamycin |  | induces XBP-1 spliced (XBP-1s)
